These results are taken from patent publication US20060223792A1, “Phenyl and pyridyl LTA4H modulators” (priority 2005, published 2006).

Assay [1] has as its system ex vivo stimulated LTB4 production. The assay can be described thus: Murine arachidonic acid-induced inflammation model: ex vivo stimulated LTB4 production in blood. The note with it: Mus musculus; 30 mg/kg oral gavage, female Balb/c mice; blood taken 3 h after arachidonic acid, stimulated ex vivo with A23187; read-out: % Inh. LTB4. As to the method: (§1) Murine Arachidonic Acid-Induced Inflammation Model
(§2) LTA4H inhibitor compounds of the present invention were dissolved in 20% cyclodextran/H2O at a concentration of 3 mg/mL. The solutions were administered by oral gavage to female Balb/c mice weighing approximately 20 grams each (0.2 mL per mouse, 30 mg of LTA4H inhibitor compound per kg). Sixty minutes after being administered an LTA4 inhibitor, each mouse received topical application of 20 μL of arachidonic acid (100 mg/mL in acetone) to the left ear and 20 μL of acetone only to the right ear. After 3 h, the mice were sacrificed, blood was withdrawn in heparinized syringes, and 8 mm ear biopsies were taken. Ear biopsies were weighed to determine edema and then frozen at −80° C. until needed for determination of neutrophil influx.
One hundred-microliter aliquots of heparinized blood were added to wells of a microtiter plate, along with equal volumes of RPMI-1640 medium, and calcium ionophore A23187 was added to each sample well (final concentration=[…]). The microtiter plate contents were incubated for 10 min at 37° C. in a humidified incubator. The reaction was terminated by centrifugation (833×g, 10 min at 4° C.). Supernatants were analyzed for LTB4 by a commercially available enzyme-linked immunoassay (Cayman Chemical Co.) in accordance with the manufacturer's instructions. The percent inhibition of ex vivo stimulated LTB4 production (% Inh. LTB4) was determined by comparison to animals treated identically except that the solution admininstered by oral gavage was devoid of inhibitor compound.

Assay [2] has as its target T1, recombinant human LTA4 hydrolase (rhLTA4H) (Homo sapiens, UniProt P09960).
T1 construct: made in house; host or cells: Spodoptera frugiperda (Sf-9) cells, baculovirus (pFastBac1)
T1 sequence (P09960 1-611): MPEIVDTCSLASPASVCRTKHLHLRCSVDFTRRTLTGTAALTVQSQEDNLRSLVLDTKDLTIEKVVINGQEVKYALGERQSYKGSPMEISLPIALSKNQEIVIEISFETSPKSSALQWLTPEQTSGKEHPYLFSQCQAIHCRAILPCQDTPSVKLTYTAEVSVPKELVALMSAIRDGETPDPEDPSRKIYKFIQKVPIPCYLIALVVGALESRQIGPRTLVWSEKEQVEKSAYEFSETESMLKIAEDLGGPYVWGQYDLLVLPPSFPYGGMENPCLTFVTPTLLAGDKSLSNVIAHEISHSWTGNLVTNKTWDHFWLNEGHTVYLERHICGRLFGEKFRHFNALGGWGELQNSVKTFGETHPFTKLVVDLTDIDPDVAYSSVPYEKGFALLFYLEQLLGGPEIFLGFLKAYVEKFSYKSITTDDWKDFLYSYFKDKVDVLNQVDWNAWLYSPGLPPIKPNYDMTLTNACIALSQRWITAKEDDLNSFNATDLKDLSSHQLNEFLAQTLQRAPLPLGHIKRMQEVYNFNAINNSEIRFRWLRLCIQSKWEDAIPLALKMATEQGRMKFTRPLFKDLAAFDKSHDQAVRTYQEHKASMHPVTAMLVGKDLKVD
Description: Recombinant human LTA4 hydrolase assay for LTA4 hydrolase inhibitor activity. It is filed as biochemical. The note with it: recombinant human LTA4H, LTB4 quantified by enzyme-linked immunoassay; average of one to three determinations; read-out: IC50. The method, boiled down: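 Sf-9-expressed rhLTA4H (36 ng) preincubated 10 min at rt with compound in 0.1 M potassium phosphate pH 7.4, 5 mg/mL fatty-acid-free BSA; 9 ng LTA4 free acid added, 10 min at rt in 225 μL. LTB4 measured by enzyme immunoassay; IC50 from 4-parameter fit, mean of one to three determinations.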

For assay [3], the system named is neutrophil influx (myeloperoxidase, MPO). The assay can be described thus: Murine arachidonic acid-induced inflammation model: neutrophil influx in ear (myeloperoxidase activity). It is filed as in vivo, female Balb/c mice. The note with it: Mus musculus, read-out: % Inh. MPO. How it is done:
as §1, §2
Neutrophil influx was quantified by measuring the activity of myeloperoxidase (MPO), a neutrophil-specific enzyme. The ear biopsies were homogenized in 0.5 mL extraction buffer (0.3 M sucrose, 0.22% (w/v) hexadecyl trimethyl ammonium bromide (CTAB), and 2.5 mM citrate prepared from 0.5 M citrate stock solution (pH 5.0)). Debris was removed by centrifugation at 14000×g for 10 min. Aliquots of 10 μL of the resulting supernatant were added to wells of a microtiter plate, along with 90-μL aliquots of dilution buffer (10 mM citrate, 0.22% CTAB), followed by addition of 20 μL TMB liquid substrate system (Sigma Chemical Co.) to each sample well. The microtiter plate contents were held at rt for 1 h. The reaction was stopped by addition of 100 μL 1 M H2SO4 to each sample well, and the myeloperoxidase activity in each sample was determined from the absorbance at 405 nm. The background value from the right ear, treated only with acetone, was subtracted from that for the left ear, treated with arachidonic acid in acetone, for each animal. The percent inhibition of neutrophil influx (% lnh. MPO) by compounds of the invention was determined by comparison to animals treated identically, except that the solution administered by oral gavage was devoid of inhibitor compound.

The test system of assay [4] is ionophore-induced LTB4 production. The note with it: oral administration; cited from earlier work.
Assay [5] has the same test system. The note with it: oral administration; cited from earlier work. This is another data set of the same source.
For a further assay, the system named is colitis symptoms. The conditions noted are these: eight weeks of treatment, cotton top tamarins; cited from earlier work.

SMILES strings stand for the structures. Read-outs that look alike come from different tables or passages of the source.

Consider `O=C(Nc1ccccc1)Oc1ccc(CCN2CCCCC2)cc1` [Example 52, Phenyl-carbamic acid 4-(2-piperidin-1-yl-ethyl)-phenyl ester], for which, in assay [1], the inhibition at 30 mg/kg was found to be 80%. In addition, the IC50 (usually the point on the concentration scale where inhibition reaches its midpoint) in assay [2] worked out at 3 nM. The inhibition in vivo at 30 mg/kg in assay [3] (po, 3 h) was determined as 87%.
With `O=C(O)CCN(CCc1ccc(OCCc2ccccc2)cc1)C1CCCCC1` [Example 89, 3-{Cyclohexyl-[2-(4-phenethyloxy-phenyl)-ethyl]-amino}-propionic acid], the inhibition at 30 mg/kg in assay [1] stood at 36%. For the same molecule, the IC50 in assay [2] was 7 nM. Further, the inhibition in vivo at 30 mg/kg in assay [3] (30 mg/kg oral gavage 60 min before topical arachidonic acid to ear, female Balb/c mice, ear biopsies after 3 h) stood at 41%.
Take `CN(CCCOc1ccc(Cc2ccccc2)cc1)CCC(=O)O.Cl` [SC57461]: in assay [4], the “inhibition of ionophore-induced LTB4 production in mouse blood ex vivo” value is reported as “caused inhibition”. Further, in assay [5], the “inhibition of ionophore-induced LTB4 production in rat peritoneum in vivo” value is reported as “caused inhibition”. Besides, the colitis symptoms result in the assay with colitis symptoms was “significantly improved colitis symptoms”.
